# Experimental data: paper PMC5259778, “Candidate pheromone receptors of codling moth Cydia pomonella respond to pheromones and kairomones” (Scientific Reports, 2017)
# Columns and labels:
# [1] = ref Scifinder, 2015; Chemspider; cited from earlier work
# CpomOR1 = assay: Single sensillum recordings, CpomOR1 expressed in Drosophila at1 OSNs; assay type: cell-based, Cydia pomonella; conditions: 10 μg per stimulus
# Excerpt: (§1) To perform heterologous expression in D. melanogaster OSNs, CpomORs were amplified using primers in Table 2 and purified PCR products were cloned into the PCR8/GW/TOPO plasmid (Invitrogen) following the recommended protocol. Cassettes with inserts were then transferred from their PCR8/GW/TOPO plasmids to the destination vector (pUASg-HA.attB, constructed by E. Furger and J. Bischof, kindly provided by the Basler group, Zürich), using the Gateway LR Clonase II kit (Invitrogen). The integrity and orientation of inserts was confirmed by sequencing (Sanger sequencer, 3730xl). Transformant UAS-CpomOR3 and UAS-CpomOR1 lines were generated by Best Gene (Chino Hills, CA, USA), using the PhiC31 integrase system, while the transformant UAS-CpomOR6a line was generated in our labs. Briefly, recombinant pUASg-HA.attB-CpomOR plasmids were injected into embryos of a D. melanogaster line containing an attP insertion site within the third chromosome (genotype y1 M{vas-int.Dm}ZH-2A w*; M{3xP3-RFP.attP}ZH-86Fb), leading to non-random integration. To drive expression of CpomORs in at1 OSNs in place of the endogenous receptor Or67d, transformant UAS-CpomOR lines were crossed to the knock-in Or67d^GAL4 line (kindly provided by Barry Dickson) to generate double homozygous lines w^+;UAS-CpomOR; Or67d^GAL4. Additionally, to drive expression of CpomOR3 in ab3A OSNs, the UAS-CpomOR3 line was crossed to the Δhalo;Or22a-Gal4 mutant line[20][57]. To verify insertion of UAS-CpomORs constructs into the genome, gDNA was extracted and used as template in PCR with primers for the full ORF of CpomORs (Table 2).
# (§2) CpomOR1 and CpomOR6a expressed in at1 OSNs, and CpomOR3 expressed in ab3A OSNs, were tested through single sensillum recordings (SSR). Three to 8-day-old flies were immobilized in 100 μL pipette tips with only the top half of the head protruding. The left antenna of each insect was gently pushed with a glass capillary against a double-sided adhesive tape placed on a piece of glass. This piece of glass and the pipette tip were fixed with dental wax on a microscope slide. Electrolytically sharpened tungsten electrodes (Harvard Apparatus Ltd, Edenbridge, United Kingdom) were used to penetrate the insect´s body. The reference electrode was manually inserted in the right eye of the fly, while the recording electrode was manoeuvred with a DC-3K micromanipulator equipped with a PM-10 piezo translator (Märzhäuser Wetzler GmbH, Wetzler, Germany) and inserted at the base of the determined sensilla. Signals coming from the olfactory sensory neurons were amplified 10 times with a probe (INR-02, Syntech, Hilversum, the Netherlands), digitally converted through an IDAC-4-USB (Syntech) interface, and visualized and analysed with the software Autospike v. 3.4 (Syntech). A constant flow of 0.65 m/s of humidified air (charcoal-filtered) was delivered through a glass tube to the antenna. The panel of odorants was given to the insect by inserting pipettes containing a piece of filter paper with the correspondent stimulus in a lateral hole of the glass tube and puffing a flow of 2.5 mL of air during 0.5 s through the pipette. For CpomOR1 and CpomOR6a the panel of odorants was prepared by applying 10 μL of a solution of 1.0 μg/μL of the compounds in Supplementary Dataset S2 and Supplementary Dataset S3, for a total amount of 10 μg per stimulus. In the case of CpomOR3, a similar dilution process was used for the dose response experiments of ethyl-(E,Z)-2,4-decadienoate and methyl-(E,Z)-2,4-decadienoate, as well for dose response of experiments of codlemone acetate in CpomOR6a. Compounds were diluted from concentrations ranging from 0.01 ng/μL to 10 μg/μL in decadic steps, allowing reaching concentrations from 100 pg to 100 μg per stimulus when 10 μL of the dilution was applied in the piece of filter paper. […]
# CpomOR6a = assay: Single sensillum recordings, CpomOR6a expressed in Drosophila at1 OSNs; assay type: cell-based, Cydia pomonella; conditions: for Spike/s: 10 μg per stimulus; for response compared with the solvent: 10 μg doses, Mann-Whitney U Test, p < 0.05
# Excerpt: as §1, §2
compound,measurement,setting,value
"C=C(C)C1CC=C(C=O)CC1 (centres unmarked) [1,8-p-menthadien-7-al (perillaldehyde), 1,8-p-menthadien-7-al]",LogP,[1],3.053 ± 0.335
same,Solubility,[1],6.1 mM
CCCCCCCCCCCCO [1-dodecanol],Spikes/s,CpomOR1; replicate 1,-2 Spikes/s
same,Spikes/s,CpomOR1; replicate 2,4 Spikes/s
same,Spikes/s,CpomOR1; replicate 3,2 Spikes/s
same,Spikes/s,CpomOR1; replicate 4,-2 Spikes/s
same,Spikes/s,CpomOR1; replicate 5,2 Spikes/s
CCCCCCCCO [1-octanol],LogP,[1],2.876±0.177
CCCCCO [1-pentanol],LogP,[1],1.348±0.176
same,Solubility (M),[1],"0,24 M"
CCC(C)CO (centres unmarked) [2-methyl-1-butanol],LogP,[1],1.192±0.187
CC(C)CCC(=O)c1ccoc1 [3-(4-methyl-1-oxopentyl)furan-],LogP,[1],2.851 ± 0.318
same,Solubility,[1],2.1 mM
CC(C)CCO [3-methyl-1-butanol],LogP,[1],1.192±0.187
same,Solubility (M),[1],"0,34 M"
"C=C/C=C(\C)CCC=C(C)C [4,8-Dimethyl-1,(E)-3,7-nonatriene]",Spikes/s,CpomOR1; replicate 1,2 Spikes/s
same,Spikes/s,CpomOR1; replicate 2,-6 Spikes/s
same,Spikes/s,CpomOR1; replicate 3,2 Spikes/s
same,Spikes/s,CpomOR1; replicate 4,4 Spikes/s
same,Spikes/s,CpomOR1; replicate 5,-8 Spikes/s
C=CCc1ccc(OC)cc1 [4-Allylanisole],LogP,[1],3.088±0.223
CC(C)c1ccc(O)cc1 [4-isopropyl phenol],LogP,[1],2.986±0.200
same,Solubility (M),[1],"0,015 M"
CC(=O)CCC=C(C)C [6-methyl-5-hepten-2-one],LogP,[1],1.947±0.238
same,Solubility,[1],52 mM
C=C(C)[C@@H]1CCC2=CC(=O)C[C@@H](C)[C@]2(C)C1 [(+)-nootkatone],LogP,[1],3.765±0.275
same,Solubility (M),[1],"2,40E-04 M"
CCC/C=C/CCCCCCCO [(E8)-12:OH],Spikes/s,CpomOR1; replicate 1,-2 Spikes/s
same,Spikes/s,CpomOR1; replicate 2,4 Spikes/s
same,Spikes/s,CpomOR1; replicate 3,0 Spikes/s
same,Spikes/s,CpomOR1; replicate 4,0 Spikes/s
same,Spikes/s,CpomOR1; replicate 5,2 Spikes/s
"C/C=C\C=C\CCCCCCCO [(E8,Z10)-12:OH]",Spikes/s,CpomOR1; replicate 1,-2 Spikes/s
same,Spikes/s,CpomOR1; replicate 2,-2 Spikes/s
same,Spikes/s,CpomOR1; replicate 3,0 Spikes/s
same,Spikes/s,CpomOR1; replicate 4,-2 Spikes/s
same,Spikes/s,CpomOR1; replicate 5,-2 Spikes/s
CC/C=C/CCCCCCCCO [(E9)-12:OH],Spikes/s,CpomOR1; replicate 1,-4 Spikes/s
same,Spikes/s,CpomOR1; replicate 2,0 Spikes/s
same,Spikes/s,CpomOR1; replicate 3,2 Spikes/s
same,Spikes/s,CpomOR1; replicate 4,4 Spikes/s
same,Spikes/s,CpomOR1; replicate 5,-2 Spikes/s
C/C=C/CCCCCCCCCO [(E10)-12:OH],Spikes/s,CpomOR1; replicate 1,-2 Spikes/s
same,Spikes/s,CpomOR1; replicate 2,-2 Spikes/s
same,Spikes/s,CpomOR1; replicate 3,0 Spikes/s
same,Spikes/s,CpomOR1; replicate 4,-4 Spikes/s
same,Spikes/s,CpomOR1; replicate 5,2 Spikes/s
"CCC/C=C/CCCCCCCOC(C)=O [(E)-8:12Ac, (E)-8-dodecadien-1-yl acetate]",Spike/s,CpomOR6a; replicate 1,10 Spike/s
same,Spike/s,CpomOR6a; replicate 2,0 Spike/s
same,Spike/s,CpomOR6a; replicate 3,4 Spike/s
same,Spike/s,CpomOR6a; replicate 4,4 Spike/s
same,Spike/s,CpomOR6a; replicate 5,12 Spike/s
same,Spike/s,CpomOR6a; replicate 6,26 Spike/s
same,Spike/s,CpomOR6a; replicate 7,30 Spike/s
same,Spike/s,CpomOR6a; replicate 8,30 Spike/s
same,Spike/s,CpomOR6a; replicate 9,10 Spike/s
"C/C=C/CCCCCCCCCOC(C)=O [(E)-10:12Ac, (E)-10-dodecadien-1-yl acetate]",response compared with the solvent,CpomOR6a,significantly activated
same,Spike/s,CpomOR6a; replicate 1,26 Spike/s
same,Spike/s,CpomOR6a; replicate 2,26 Spike/s
same,Spike/s,CpomOR6a; replicate 3,28 Spike/s
same,Spike/s,CpomOR6a; replicate 4,60 Spike/s
same,Spike/s,CpomOR6a; replicate 5,34 Spike/s
same,Spike/s,CpomOR6a; replicate 6,36 Spike/s
same,Spike/s,CpomOR6a; replicate 7,50 Spike/s
same,Spike/s,CpomOR6a; replicate 8,66 Spike/s
same,Spike/s,CpomOR6a; replicate 9,26 Spike/s
C=CC(=C)CC/C=C(\C)CCC=C(C)C [(E)-β-farnesene],Spikes/s,CpomOR1; replicate 1,0 Spikes/s
same,Spikes/s,CpomOR1; replicate 2,4 Spikes/s
same,Spikes/s,CpomOR1; replicate 3,2 Spikes/s
same,Spikes/s,CpomOR1; replicate 4,0 Spikes/s
same,Spikes/s,CpomOR1; replicate 5,2 Spikes/s
C=C/C(C)=C/CC=C(C)C [(E)-β-ocimene],Spikes/s,CpomOR1; replicate 1,2 Spikes/s
same,Spikes/s,CpomOR1; replicate 2,8 Spikes/s
same,Spikes/s,CpomOR1; replicate 3,0 Spikes/s
same,Spikes/s,CpomOR1; replicate 4,2 Spikes/s
same,Spikes/s,CpomOR1; replicate 5,4 Spikes/s
"C/C=C\C=C\CCCCCCCOC(C)=O [(E,Z)-8,10:12Ac, (E,Z)-8,10-dodecadien-1yl acetate]",response compared with the solvent,CpomOR6a,significantly activated
same,Spike/s,CpomOR6a; replicate 1,6 Spike/s
same,Spike/s,CpomOR6a; replicate 2,10 Spike/s
same,Spike/s,CpomOR6a; replicate 3,16 Spike/s
same,Spike/s,CpomOR6a; replicate 4,6 Spike/s
same,Spike/s,CpomOR6a; replicate 5,8 Spike/s
same,Spike/s,CpomOR6a; replicate 6,24 Spike/s
same,Spike/s,CpomOR6a; replicate 7,16 Spike/s
same,Spike/s,CpomOR6a; replicate 8,34 Spike/s
same,Spike/s,CpomOR6a; replicate 9,2 Spike/s
"C/C=C/C=C\CCCCCCCO [(Z8,E10)-12:OH]",Spikes/s,CpomOR1; replicate 1,0 Spikes/s
same,Spikes/s,CpomOR1; replicate 2,0 Spikes/s
same,Spikes/s,CpomOR1; replicate 3,6 Spikes/s
same,Spikes/s,CpomOR1; replicate 4,8 Spikes/s
same,Spikes/s,CpomOR1; replicate 5,-4 Spikes/s
"C/C=C\C=C/CCCCCCCO [(Z8,Z10)-12:OH]",Spikes/s,CpomOR1; replicate 1,-2 Spikes/s
same,Spikes/s,CpomOR1; replicate 2,0 Spikes/s
same,Spikes/s,CpomOR1; replicate 3,0 Spikes/s
same,Spikes/s,CpomOR1; replicate 4,4 Spikes/s
same,Spikes/s,CpomOR1; replicate 5,12 Spikes/s
"C/C=C\C/C=C/CCCCCCCCOC(C)=O [(Z9,E12)-14:Ac]",Spikes/s,CpomOR1; replicate 1,2 Spikes/s
same,Spikes/s,CpomOR1; replicate 2,-4 Spikes/s
same,Spikes/s,CpomOR1; replicate 3,2 Spikes/s
same,Spikes/s,CpomOR1; replicate 4,-10 Spikes/s
same,Spikes/s,CpomOR1; replicate 5,0 Spikes/s
"CCC/C=C\CCCCCCCOC(C)=O [(Z)-8:12Ac, (Z)-8-dodecadien-1yl acetate]",Spike/s,CpomOR6a; replicate 1,0 Spike/s
same,Spike/s,CpomOR6a; replicate 2,0 Spike/s
same,Spike/s,CpomOR6a; replicate 3,0 Spike/s
same,Spike/s,CpomOR6a; replicate 4,4 Spike/s
same,Spike/s,CpomOR6a; replicate 5,-2 Spike/s
same,Spike/s,CpomOR6a; replicate 6,22 Spike/s
same,Spike/s,CpomOR6a; replicate 7,32 Spike/s
same,Spike/s,CpomOR6a; replicate 8,6 Spike/s
same,Spike/s,CpomOR6a; replicate 9,-8 Spike/s
"C/C=C\CCCCCCCCCOC(C)=O [(Z)-10:12Ac, (Z)-10-dodecadien-1-yl acetate]",Spike/s,CpomOR6a; replicate 1,0 Spike/s
same,Spike/s,CpomOR6a; replicate 2,6 Spike/s
same,Spike/s,CpomOR6a; replicate 3,2 Spike/s
same,Spike/s,CpomOR6a; replicate 4,2 Spike/s
same,Spike/s,CpomOR6a; replicate 5,6 Spike/s
same,Spike/s,CpomOR6a; replicate 6,12 Spike/s
same,Spike/s,CpomOR6a; replicate 7,14 Spike/s
same,Spike/s,CpomOR6a; replicate 8,4 Spike/s
same,Spike/s,CpomOR6a; replicate 9,4 Spike/s
"C/C=C/C=C\CCCCCCCOC(C)=O [(Z,E)-8,10:12Ac, (Z,E)-8,10-dodecadien-1yl acetate]",Spike/s,CpomOR6a; replicate 1,10 Spike/s
same,Spike/s,CpomOR6a; replicate 2,2 Spike/s
same,Spike/s,CpomOR6a; replicate 3,-4 Spike/s
same,Spike/s,CpomOR6a; replicate 4,8 Spike/s
same,Spike/s,CpomOR6a; replicate 5,0 Spike/s
same,Spike/s,CpomOR6a; replicate 6,18 Spike/s
same,Spike/s,CpomOR6a; replicate 7,26 Spike/s
same,Spike/s,CpomOR6a; replicate 8,40 Spike/s
same,Spike/s,CpomOR6a; replicate 9,10 Spike/s
"C/C=C\C=C/CCCCCCCOC(C)=O [(Z,Z)-8,10:12Ac, (Z,Z)-8,10-dodecadien-1yl acetate]",response compared with the solvent,CpomOR6a,significantly activated
same,Spike/s,CpomOR6a; replicate 1,14 Spike/s
same,Spike/s,CpomOR6a; replicate 2,12 Spike/s
same,Spike/s,CpomOR6a; replicate 3,10 Spike/s
same,Spike/s,CpomOR6a; replicate 4,16 Spike/s
same,Spike/s,CpomOR6a; replicate 5,20 Spike/s
same,Spike/s,CpomOR6a; replicate 6,20 Spike/s
same,Spike/s,CpomOR6a; replicate 7,10 Spike/s
same,Spike/s,CpomOR6a; replicate 8,32 Spike/s
same,Spike/s,CpomOR6a; replicate 9,12 Spike/s
CCCCCC(=O)OCCCC [butyl hexanoate],Spikes/s,CpomOR1; replicate 1,4 Spikes/s
same,Spikes/s,CpomOR1; replicate 2,-4 Spikes/s
same,Spikes/s,CpomOR1; replicate 3,2 Spikes/s
same,Spikes/s,CpomOR1; replicate 4,0 Spikes/s
same,Spikes/s,CpomOR1; replicate 5,-8 Spikes/s
Dodecadien-1-yl acetate [12Ac],Spike/s,CpomOR6a; replicate 1,4 Spike/s
same,Spike/s,CpomOR6a; replicate 2,4 Spike/s
same,Spike/s,CpomOR6a; replicate 3,-2 Spike/s
same,Spike/s,CpomOR6a; replicate 4,6 Spike/s
same,Spike/s,CpomOR6a; replicate 5,10 Spike/s
same,Spike/s,CpomOR6a; replicate 6,6 Spike/s
same,Spike/s,CpomOR6a; replicate 7,0 Spike/s
same,Spike/s,CpomOR6a; replicate 8,12 Spike/s
same,Spike/s,CpomOR6a; replicate 9,-12 Spike/s
